target: T1, human PAH with the R408W mutation (Homo sapiens, UniProt P00439, R408W); test: Cell Based Phenylalanine Flux Assay; conditions: A375 cells expressing human R408W PAH; 24 hrs compound incubation; 13C-Tyrosine by LC-MS; average where tested multiple times; read-out: AC50;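 note: after compound treatment, cells received sepiapterin plus isotope-labelled Phenylalanine for 4 hours, then labelled Tyrosine in the medium was quantified, 10-point 2-fold dilution series run in duplicate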
T1 construct: expressed in transfected cells
T1 sequence (P00439 1-452 R408W): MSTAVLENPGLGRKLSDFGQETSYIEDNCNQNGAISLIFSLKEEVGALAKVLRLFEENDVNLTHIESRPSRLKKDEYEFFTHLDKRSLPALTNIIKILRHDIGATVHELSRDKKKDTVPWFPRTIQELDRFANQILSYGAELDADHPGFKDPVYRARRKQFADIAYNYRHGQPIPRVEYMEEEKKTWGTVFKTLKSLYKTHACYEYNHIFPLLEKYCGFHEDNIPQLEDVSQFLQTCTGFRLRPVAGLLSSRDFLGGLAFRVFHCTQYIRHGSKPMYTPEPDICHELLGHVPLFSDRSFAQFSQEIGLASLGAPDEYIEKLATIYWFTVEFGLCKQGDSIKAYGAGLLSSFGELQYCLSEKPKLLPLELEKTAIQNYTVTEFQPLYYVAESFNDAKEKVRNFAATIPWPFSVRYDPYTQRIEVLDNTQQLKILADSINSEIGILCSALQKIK

AC50 [nM]	SMILES
500 to 1000	C[C@@H](O)c1nc(C(F)F)c(C(=O)N2CCc3[nH]cnc3[C@H]2c2cc3cccc(C(F)(F)F)n3n2)o1 [Example 1180, (4-(difluoromethyl)-2-((R)-1-hydroxyethyl)oxazol-5-yl)((S)4-(7-(trifluoromethyl)pyrazolo[1,5-a]pyridin-2-yl)-6,7-dihydro-1H-imidazo[4,5-c]pyridin-5(4H)-yl)methanone]
1000 to 5000	COc1cccn2nc([C@H]3c4nc[nH]c4CCN3C(=O)c3nnc(C(C)(C)C)o3)cc12 [Example 1182, (R)-(5-(tert-butyl)-1,3,4-oxadiazol-2-yl)(4-(4-methoxypyrazolo[1,5-a]pyridin-2-yl)-6,7-dihydro-1H-imidazo[4,5-c]pyridin-5(4H)-yl)methanone]
500 to 1000	COc1cccn2nc([C@@H]3c4nc[nH]c4CCN3C(=O)c3nnc(C(C)(C)C)o3)cc12 [Example 1183, (S)-(5-(tert-butyl)-1,3,4-oxadiazol-2-yl)(4-(4-methoxypyrazolo[1,5-a]pyridin-2-yl)-6,7-dihydro-1H-imidazo[4,5-c]pyridin-5(4H)-yl)methanone]
500 to 1000	Cc1ccc2cc([C@H]3c4nc[nH]c4CCN3C(=O)c3cnco3)nn2c1 [Example 1186, (R)-(4-(6-methylpyrazolo[1,5-a]pyridin-2-yl)-6,7-dihydro-1H-imidazolo[4,5-c]pyridin-5(4H)-yl)(oxazol-5-yl)methanone]
1000 to 5000	Cc1ccc2cc([C@@H]3c4nc[nH]c4CCN3C(=O)c3cnco3)nn2c1 [Example 1187, (S)-(4-(6-methylpyrazolo[1,5-a]pyridin-2-yl)-6,7-dihydro-1H-imidazo[4,5-c]pyridin-5(4H)-yl)(oxazol-5-yl)methanone]
1000 to 5000	Cc1c(-c2nnc(C(=O)N3CCc4[nH]cnc4[C@@H]3c3cc4cccc(C)n4n3)o2)cnn1C [Example 1189, (R)-(5-(1,5-dimethyl-1H-pyrazol-4-yl)-1,3,4-oxadiazol-2-yl)(4-(7-methylpyrazolo[1,5-a]pyridin-2-yl)-6,7-dihydro-1H-imidazo[4,5-c]pyridin-5(4H)-yl)methanone]
1000 to 5000	Cc1c(-c2nnc(C(=O)N3CCc4[nH]cnc4[C@@H]3c3cc4cccc(C(F)(F)F)n4n3)o2)cnn1C [Example 1191, (R)-(5-(1,5-dimethyl-1H-pyrazol-4-yl)-1,3,4-oxadiazol-2-yl)(4-(7-(trifluoromethyl)pyrazolo[1,5-a]pyridin-2-yl)-6,7-dihydro-1H-imidazo[4,5-c]pyridin-5(4H)-yl)methanone]
< 500	CC(C)(O)c1nc(C(F)(F)F)c(C(=O)N2CCc3[nH]cnc3[C@H]2c2cc3cccc(Cl)n3n2)o1 [Example 1192, (S)-(4-(7-chloropyrazolo[1,5-a]pyridin-2-yl)-6,7-dihydro-1H-imidazo[4,5-c]pyridin-5(4H)-yl)(2-(2-hydroxypropan-2-yl)-4-(trifluoromethyl)oxazol-5-yl)methanone]
1000 to 5000	CC(C)(O)c1nc(C(F)(F)F)c(C(=O)N2CCc3[nH]cnc3[C@@H]2c2cc3cccc(Cl)n3n2)o1 [Example 1193, (R)-(4-(7-chloropyrazolo[1,5-a]pyridin-2-yl)-6,7-dihydro-1H-imidazo[4,5-c]pyridin-5(4H)-yl)(2-(2-hydroxypropan-2-yl)-4-(trifluoromethyl)oxazol-5-yl)methanone]
1000 to 5000	C[C@H](O)c1nc(C(F)F)c(C(=O)N2CCc3[nH]cnc3[C@@H]2c2cc3cccc(Cl)n3n2)o1 [Example 1194, ((R)-4-(7-chloropyrazolo[1,5-a]pyridin-2-yl)-6,7-dihydro-1H-imidazo[4,5-c]pyridin-5(4H)-yl)(4-(difluoromethyl)-2-((S)-1-hydroxyethyl)oxazol-5-yl)methanone]
500 to 1000	C[C@H](O)c1nc(C(F)F)c(C(=O)N2CCc3[nH]cnc3[C@H]2c2cc3cccc(Cl)n3n2)o1 [Example 1195, ((S)-4-(7-chloropyrazolo[1,5-a]pyridin-2-yl)-6,7-dihydro-1H-imidazo[4,5-c]pyridin-5(4H)-yl)(4-(difluoromethyl)-2-((S)-1-hydroxyethyl)oxazol-5-yl)methanone]
1000 to 5000	C[C@@H](O)c1nc(C(F)F)c(C(=O)N2CCc3[nH]cnc3[C@@H]2c2cc3cccc(Cl)n3n2)o1 [Example 1197, ((R)-4-(7-chloropyrazolo[1,5-a]pyridin-2-yl)-6,7-dihydro-1H-imidazo[4,5-c]pyridin-5(4H)-yl)(4-(difluoromethyl)-2-((R)-1-hydroxyethyl)oxazol-5-yl)methanone]
500 to 1000	C[C@H](O)c1nc(C(F)F)c(C(=O)N2CCc3[nH]cnc3[C@H]2c2cc3cccc(C(F)(F)F)n3n2)o1 [Example 1200, (4-(difluoromethyl)-2-((S)-1-hydroxyethyl)oxazol-5-yl)((S)-4-(7-(trifluoromethyl)pyrazolo[1,5-a]pyridin-2-yl)-6,7-dihydro-1H-imidazo[4,5-c]pyridin-5(4H)-yl)methanone]
500 to 1000	C[C@H](O)c1nc(C(F)F)c(C(=O)N2CCc3[nH]cnc3[C@@H]2c2cc3cccc(C(F)(F)F)n3n2)o1 [Example 1201, (4-(difluoromethyl)-2-((S)-1-hydroxyethyl)oxazol-5-yl)((R)-4-(7-(trifluoromethyl)pyrazolo[1,5-a]pyridin-2-yl)-6,7-dihydro-1H-imidazo[4,5-c]pyridin-5(4H)-yl)methanone]
< 500	O=C(c1ocnc1C(F)F)N1CCc2[nH]cnc2[C@H]1c1cc2cccc(F)n2n1 [Example 1202, (S)-(4-(difluoromethyl)oxazol-5-yl)(4-(7-fluoropyrazolo[1,5-a]pyridin-2-yl)-6,7-dihydro-1H-imidazo[4,5-c]pyridin-5(4H)-yl)methanone]
1000 to 5000	O=C(c1ocnc1C(F)F)N1CCc2[nH]cnc2[C@@H]1c1cc2cccc(F)n2n1 [Example 1203, (R)-(4-(difluoromethyl)oxazol-5-yl)(4-(7-fluoropyrazolo[1,5-a]pyridin-2-yl)-6,7-dihydro-1H-imidazo[4,5-c]pyridin-5(4H)-yl)methanone]
< 500	Cc1c(-c2nnc(C(=O)N3CCc4[nH]cnc4[C@H]3c3cc4c(C(F)(F)F)cccn4n3)o2)cnn1C [Example 1204, (S)-(5-(1,5-dimethyl-1H-pyrazol-4-yl)-1,3,4-oxadiazol-2-yl)(4-(4-(trifluoromethyl)pyrazolo[1,5-a]pyridin-2-yl)-6,7-dihydro-1H-imidazo[4,5-c]pyridin-5(4H)-yl)methanone]
> 5000	Cc1c(-c2nnc(C(=O)N3CCc4[nH]cnc4[C@@H]3c3cc4c(C(F)(F)F)cccn4n3)o2)cnn1C [Example 1205, (R)-(5-(1,5-dimethyl-1H-pyrazol-4-yl)-1,3,4-oxadiazol-2-yl)(4-(4-(trifluoromethyl)pyrazolo[1,5-a]pyridin-2-yl)-6,7-dihydro-1H-imidazo[4,5-c]pyridin-5(4H)-yl)methanone]
500 to 1000	COc1cccn2nc([C@@H]3c4nc[nH]c4CCN3C(=O)c3nnc(-c4cnn(C)c4C)o3)cc12 [Example 1206, (S)-(5-(1,5-dimethyl-1H-pyrazol-4-yl)-1,3,4-oxadiazol-2-yl)(4-(4-methoxypyrazolo[1,5-a]pyridin-2-yl)-6,7-dihydro-1H-imidazo[4,5-c]pyridin-5(4H)-yl)methanone]

From patent US20230365592A1 (Agios Pharmaceuticals, Inc., priority 2022, published 2023)
